Values after ≈ are worked out from the molar mass of the structure shown. Active and inactive are the calls of the source. The rule behind the calls is not given here. Bounds are passed on as bounds.

Experimental findings from ChEMBL document CHEMBL5370608, “Selective and Bioavailable HDAC6 2-(Difluoromethyl)-1,3,4-oxadiazole Substrate Inhibitors and Modeling of Their Bioactivation Mechanism” (J Med Chem, 2023) are described below.

Data set [1] has as its target T1, Protein deacetylase HDAC6 (Homo sapiens, UniProt Q9UBN7).
T1 sequence (Q9UBN7 whole entry): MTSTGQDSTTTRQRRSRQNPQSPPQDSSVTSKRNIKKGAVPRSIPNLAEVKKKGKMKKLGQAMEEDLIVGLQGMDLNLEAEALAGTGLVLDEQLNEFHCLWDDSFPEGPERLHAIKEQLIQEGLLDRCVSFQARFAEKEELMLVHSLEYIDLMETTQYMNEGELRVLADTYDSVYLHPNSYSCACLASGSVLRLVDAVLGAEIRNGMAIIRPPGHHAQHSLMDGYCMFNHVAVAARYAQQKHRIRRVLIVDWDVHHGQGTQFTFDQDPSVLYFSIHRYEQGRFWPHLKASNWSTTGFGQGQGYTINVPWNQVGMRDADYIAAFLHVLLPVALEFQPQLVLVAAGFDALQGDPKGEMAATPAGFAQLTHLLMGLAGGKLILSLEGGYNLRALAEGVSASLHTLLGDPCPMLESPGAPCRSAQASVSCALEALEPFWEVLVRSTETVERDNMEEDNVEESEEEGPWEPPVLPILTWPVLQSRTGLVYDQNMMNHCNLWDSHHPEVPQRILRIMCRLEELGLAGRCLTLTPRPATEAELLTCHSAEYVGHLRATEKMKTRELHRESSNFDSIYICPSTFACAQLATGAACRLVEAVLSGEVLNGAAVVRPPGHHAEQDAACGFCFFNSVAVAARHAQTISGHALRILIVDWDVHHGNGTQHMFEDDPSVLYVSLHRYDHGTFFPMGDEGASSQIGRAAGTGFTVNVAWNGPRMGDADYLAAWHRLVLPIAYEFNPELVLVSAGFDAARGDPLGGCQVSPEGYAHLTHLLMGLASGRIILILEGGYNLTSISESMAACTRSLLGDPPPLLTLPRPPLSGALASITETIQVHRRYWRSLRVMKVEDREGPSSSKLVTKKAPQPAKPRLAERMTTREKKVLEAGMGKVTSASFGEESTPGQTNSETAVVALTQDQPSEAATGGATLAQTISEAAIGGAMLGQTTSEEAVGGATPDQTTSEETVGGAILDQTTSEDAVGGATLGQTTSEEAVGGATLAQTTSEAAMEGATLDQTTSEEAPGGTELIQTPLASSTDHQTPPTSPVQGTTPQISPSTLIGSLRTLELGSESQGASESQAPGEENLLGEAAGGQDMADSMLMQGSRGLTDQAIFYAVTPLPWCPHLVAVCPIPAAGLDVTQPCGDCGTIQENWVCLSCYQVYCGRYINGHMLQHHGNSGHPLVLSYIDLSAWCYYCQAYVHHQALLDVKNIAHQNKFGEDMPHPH
The data set can be described thus: Inhibition of full length TEV-cleavable N-terminal His6-tagged human recombinant HDAC6 using Ac-RGK (Ac)-AMC as substrate preincubated for 20 hrs followed by substrate addition and measured after 3 hrs by microplate reader analysis.

The nature of data set [2]: Aqueous solubility of the compound at pH 7.4. It is filed as physicochemical.
Data set [3] deals with T1, Protein deacetylase HDAC6. Nature of the data set: Inhibition of HDAC6 in human BEAS-2B cells assessed as deacetylation of acetylated alpha-tubulin level incubated for 24 hrs by Western blot analysis. It is filed as cell-based.
The target in data set [4] is T1, Protein deacetylase HDAC6. Nature of the data set: Inhibition of HDAC6 in human BEAS-2B cells assessed as deacetylation of acetylated histone-3 level incubated for 24 hrs by Western blot analysis. It is filed as cell-based.
Data set [5] in a line: Metabolic stability in human liver microsomes assessed as disappearance of parent compound. It counts as ADME, Microsome. To be noted: read-out: CLH.
Data set [6] deals with THP-1. Nature of the data set: Cytotoxicity against human THP-1 cells assessed as reduction in cell viability by alamar blue staining based assay. It counts as functional.
For data set [7], the target named is T1, Protein deacetylase HDAC6. The data set can be described thus: Stability of the compound assessed as full-length human HDAC6 mediated-drug degradation measured after 96 hrs by time-resolved mass spectrometry analysis. It is filed as ADME.
In data set [8] the test system is THP-1. The data set can be described thus: Cytotoxicity against human THP-1 cells assessed as reduction in cell viability measured upto 250 uM by alamar blue staining based assay. It is filed as functional.
The nature of data set [9]: Chemical stability of compound in HCL solution at pH 1 assessed as half life by UPLC analysis. It is filed as physicochemical.
Data set [10] in a line: Chemical stability of compound in sodium phosphate buffer at pH 7.4 assessed as half life by UPLC analysis. It is filed as physicochemical.
Data set [11] in a line: Chemical stability of compound in sodium carbonate buffer at pH 10 assessed as half life by UPLC analysis. It counts as physicochemical.
Data set [12] concerns the target T2, Protein deacetylase HDAC6 (Homo sapiens) (UniProt Q9UBN7).
T2 sequence (whole entry): T1 sequence (Q9UBN7 whole entry)
Nature of the data set: Inhibition of HDAC6 in human BEAS-2B cells assessed as deacetylation of acetylated alpha-tubulin level at 10 uM incubated for 24 hrs by Western blot analysis. It counts as cell-based.

As for `FC(F)c1nnc(-c2ccc(Cn3nnc(-c4ccc(Cl)cc4)n3)nc2)o1`, the IC50 was 0.002 µM in data set [1] and > 10 µM in [4]. The amount in solution in [2] (solubility) came to 1.3 µM (≈ 0.507 µg/mL). For the same molecule, the EC50 in data set [3] is 1.26 µM. Also, in [5], the microsomal CLint is < 3 µL/min/mg.
In the case of `FC(F)c1nnc(-c2cnc(NC3(c4ccccc4)CCC(F)(F)CC3)nc2)o1`, the IC50 in data set [1] was 0.00398 µM; in [4], > 10 µM; in data set [6] (read-out: IC50) it was 130 µM; in data set [6] (read-out: pIC50 (converted)), 158 µM. This molecule also gave a solubility in data set [2] of 2.6 µM (≈ 1.06 µg/mL). The EC50 in data set [3] is 0.631 µM. For the same molecule, the microsomal CLint in [5] was 12 µL/min/mg. Further, the Stability result in data set [7] is reported as “Unstable”.
On to `COc1cccc(CNC(=O)c2csc(-c3nnn(Cc4ccc(-c5nnc(C(F)F)o5)cc4)n3)c2)c1`, for which the IC50 in data set [1] is 0.00158 µM; in data set [3], 0.01 µM. For the same molecule, in [2], the solubility is < 1.6 µM. Besides, the microsomal CLint in [5] turned out to be 160 µL/min/mg.
For the molecule `Fc1cc(-c2nnc(C(F)F)o2)cc(F)c1Cn1nnc(-c2ccccn2)n1`, the IC50 in [1] was 0.00631 µM; in [4] it was > 10 µM; in data set [6] (read-out: pIC50 (converted)), > 251 µM. In data set [2], this molecule yielded a solubility of 52 µM (≈ 20.3 µg/mL). The half-maximal effective concentration (EC50) in data set [3] was 3.16 µM. Moreover, the microsomal CLint in [5] was < 3 µL/min/mg. For the same molecule, the outcome in data set [8] was inactive. Besides, the half-life in data set [9] was < 13.7 h; in [10], 57.6 h; in data set [11], < 13.7 h.
For `COc1cccc(CNC(=O)c2csc(-c3nnn(Cc4ccc(-c5nnc(C(F)(F)F)o5)cc4)n3)c2)c1`, the IC50 in data set [1] is 0.0126 µM. Further, in data set [12], the inhibition result was “inactive”.
As to `CNC(=O)c1csc(-c2nnn(Cc3ccc(-c4nnc(C(F)F)o4)cc3)n2)c1`, the values for the IC50 in [1], in [4] and in [6] (read-out: pIC50 (converted)) were 0.001 µM, > 10 µM and > 251 µM, respectively. Further, in data set [2], the solubility was 2.3 µM (≈ 0.96 µg/mL). In addition, the concentration giving a half-maximal response (EC50) in [3] was 0.501 µM. Besides, in data set [5], the microsomal CLint came out at 7.5 µL/min/mg. Besides, the outcome in [8] was inactive.
For `FC(F)c1nnc(-c2ccc(Cn3nnc(-c4ccccn4)n3)cn2)o1`, in [1], the IC50 is > 10 µM. This molecule also showed a solubility in data set [2] of 120 µM (≈ 42.8 µg/mL). The microsomal CLint in data set [5] is < 3 µL/min/mg.
Turning to `COc1cccc(-c2nnn(Cc3ccc(-c4nnc(C(F)F)o4)cn3)n2)c1`, the IC50 in [1] is 0.002 µM; in data set [4], > 10 µM. The same molecule had a solubility in data set [2] of 2.9 µM (≈ 1.12 µg/mL). Also, in data set [3], the 50% effective concentration (EC50) is 0.316 µM. The microsomal CLint in data set [5] was determined as 18 µL/min/mg.
`COc1cccc(CNC(=O)c2csc(-c3nnn(Cc4ccc(-c5nnc(C)o5)cc4)n3)c2)c1`: in data set [1], the IC50 was > 100 µM.
As for `FC(F)c1nnc(-c2ccc(Cn3nnc(-c4ccccn4)n3)cc2)o1`, the IC50 was 0.002 µM in data set [1], > 10 µM in data set [4] and > 251 µM in data set [6] (read-out: pIC50 (converted)). The same molecule showed a solubility in [2] of 14 µM (≈ 4.97 µg/mL). In addition, in data set [3], the EC50 was 3.16 µM. Moreover, in [5], the microsomal CLint is < 3 µL/min/mg. In [8], the result was inactive. Also, the values for the half-life in data set [9], in data set [10] and in data set [11] were 7.44 h, 240 h and < 13.7 h, respectively.
Consider `O=C(NO)c1cc(F)c(Cn2nnc(-c3ccccn3)n2)c(F)c1`, for which the IC50 was < 0.000316 µM in data set [1], 5.01 µM in data set [4], 60 µM in data set [6] (read-out: IC50) and 63.1 µM in data set [6] (read-out: pIC50 (converted)). The same molecule displayed a solubility in [2] of 710 µM (≈ 236 µg/mL). Further, the EC50 in data set [3] was 0.02 µM. Besides, in data set [5], the microsomal CLint was < 3 µL/min/mg. Further, the half-life in [9] is 624 h; in data set [10], 1730 h; in data set [11] it was 504 h. For the same molecule, in data set [7], the Stability entry is “Stable”.
Consider `FC(F)c1nnc(-c2ccc(Cn3nnc(-c4ccccc4Cl)n3)nc2)o1`, for which the IC50 in data set [1] is 0.000631 µM; in data set [4], > 10 µM; in data set [6] (read-out: pIC50 (converted)), > 251 µM. In data set [2], this molecule showed a solubility of 5.8 µM (≈ 2.26 µg/mL). Moreover, in data set [3], the EC50 is 0.398 µM. Moreover, the microsomal CLint in [5] is < 3 µL/min/mg. Also, the outcome in [8] was inactive.
Take `COc1cccc(CNC(=O)c2csc(-c3nnn(Cc4ccc(C(=O)NO)cc4)n3)c2)c1`: in data set [3], the IC50 is 0.2 µM.
As to `FC(F)c1nnc(-c2ccc(Cn3nnnc3-c3ccccn3)cc2)o1`, the IC50 is 0.0316 µM in data set [1], > 10 µM in data set [4] and > 251 µM in data set [6] (read-out: pIC50 (converted)). In data set [2], this molecule registered a solubility of 2.6 µM (≈ 0.924 µg/mL). In addition, the 50% effective concentration (EC50) in data set [3] is > 10 µM. Besides, the microsomal CLint in [5] was found to be 5.8 µL/min/mg. The outcome in [8] was inactive.
As to `FC(F)c1nnc(-c2cnc(Cn3nnc(-c4ccccn4)n3)nc2)o1`, the figures for the IC50 in data set [1] and in data set [4] were 0.0158 µM and > 10 µM, respectively. Further, in data set [2], the concentration in solution (solubility) came to 120 µM (≈ 42.9 µg/mL). Also, in data set [3], the EC50 was 1.58 µM. Further, the microsomal CLint in data set [5] was < 3 µL/min/mg. In addition, the half-life in [9] was 7.2 h; in data set [10], 26.4 h; in data set [11] it was < 13.7 h. Moreover, in data set [7], the Stability result is “Unstable”.
Regarding `FC(F)c1nnc(-c2ccc(Cn3nnc(-c4ccccc4)n3)nc2)o1`, the IC50 was 0.000794 µM in data set [1], > 10 µM in [4] and > 251 µM in [6] (read-out: pIC50 (converted)). Moreover, the solubility in data set [2] is 2.9 µM (≈ 1.03 µg/mL). Moreover, the concentration giving a half-maximal response (EC50) in [3] is 0.316 µM. In addition, the microsomal CLint in data set [5] was < 3 µL/min/mg. Besides, in [8], the result was inactive.
In the case of `FC(F)c1nnc(-c2ccc(Cn3nnc(-c4cccnc4)n3)nc2)o1`, the IC50 in data set [1] is 0.00126 µM; in [4], > 10 µM. The molecule also returned a solubility in data set [2] of 170 µM (≈ 60.6 µg/mL). In data set [3], the EC50 is 1 µM. In addition, the microsomal CLint in data set [5] was < 3 µL/min/mg.
Taken in the same sequence, the figures for `FC(F)c1nnc(-c2ccc(Cn3nnc(-c4cccc(Cl)c4)n3)nc2)o1` were 0.00158 µM, > 10 µM, 3.1 µM (≈ 1.21 µg/mL), 0.631 µM and < 3 µL/min/mg.
